*1 amine or outer side, *2 acyl side, *3 side chain or, on linkers, in order; H or OH if unused. Where a SMILES comes first, the peptide text is derived from it. Bridges are numbered along the chain shown (N, C = ends). [ ]: non-standard residue; d: D form. The star is where a group is joined. C20 diacid = O=C(O)CCCCCCCCCCCCCCCCCCC(=O)*; γGlu = O=C(O)[C@H](CCC(=O)[*:2])N[*:1]; Hyp = O=C(O)[C@@H]1C[C@@H](O)CN1; NMeI = CC[C@H](C)[C@H](NC)C(=O)O; Orn = NCCC[C@H](N)C(=O)O; Sar = CNCC(=O)O
Columns and labels:
[1] = Assessment of chemical stability (RP-HPLC normalized purity); format: physicochemical; settings: 7 days, 40° C., Table 1; for Normalized purity after 7 days, 40° C., pH 4: pH 4, 0.2 mg/ml; for Normalized purity after 7 days, 40° C., pH 6: pH 6, 0.2 mg/ml; for Normalized purity after 7 days, 40° C., pH 7.5: pH 7.5, 0.2 mg/ml; for Normalized purity after 7 days, 40° C., pH 9: pH 9, 0.2 mg/ml
Outline: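 Peptides at 0.2 mg/ml in water adjusted to pH 4, 6, 7.5 or 9, incubated at 40° C for 7 days. Main-peak area-% by RP-HPLC (C8 ammonium formate or C18 TFA gradient, UV 220 nm), normalized to T=0 as 100.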

[2] = target: T1, human calcitonin receptor (hCTR2) (Homo sapiens, UniProt P30988); assay: hCTR2 cAMP assay (AlphaScreen) in COS7 cells; format: cell-based; settings: cAMP induction, COS7 cells expressing hCTR2; Table 1; read-out: hCTR2 EC50
T1 construct: expressed in transfected cells
T1 sequence (P30988 25-474): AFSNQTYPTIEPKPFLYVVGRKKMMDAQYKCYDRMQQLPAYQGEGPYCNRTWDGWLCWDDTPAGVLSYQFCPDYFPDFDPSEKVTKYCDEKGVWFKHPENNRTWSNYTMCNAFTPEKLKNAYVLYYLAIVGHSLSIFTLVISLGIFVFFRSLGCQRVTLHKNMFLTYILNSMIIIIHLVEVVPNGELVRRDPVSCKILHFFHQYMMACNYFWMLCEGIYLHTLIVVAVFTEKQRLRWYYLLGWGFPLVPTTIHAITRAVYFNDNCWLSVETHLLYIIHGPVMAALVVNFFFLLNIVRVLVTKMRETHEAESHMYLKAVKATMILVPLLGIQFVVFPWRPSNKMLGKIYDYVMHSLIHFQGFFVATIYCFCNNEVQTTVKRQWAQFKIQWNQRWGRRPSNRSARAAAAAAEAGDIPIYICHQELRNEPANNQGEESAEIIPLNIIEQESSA
Outline: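 Stable hCTR2 clone in RAMP-naïve COS7 cells stimulated 15 min at 37 °C with increasing peptide concentrations in Tyrode buffer pH 7.4 containing IBMX and 0.1% casein. cAMP in lysates measured by AlphaScreen; EC50 from 4-parameter logistic fit.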

[3] = Assessment of physical stability (Thioflavin T fibrillation); format: physicochemical; parameters: key: FND = fibrillation not detected; FD = fibrillation detected; settings: 1 mg/ml, 40° C., ThT; for Fibrillation pH 4.0 (Ac): 50 mM acetate buffer pH 4.0, 96 hours; for Fibrillation pH 7.0 (His): 50 mM histidine buffer pH 7.0, 96 hours; for Fibrillation pH 7.0 (Phos.): 50 mM phosphate buffer pH 7.0, 96 hours
Outline: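 1 mg/ml peptide with 40 μM ThT in 50 mM phosphate pH 7.0, 50 mM histidine pH 7.0 or 50 mM acetate pH 4.0, in triplicate. Fluorescence read every 10 min after 300 s agitation over 96 h at 40 °C. Lag-time (h) is the intersection of linear fits to stable and growth phases.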

[4] = Pharmacokinetic (PK) profiling in rats; format: in vivo, rat; parameters: CI/F (apparent clearance values): unit not given here; settings: Sprague Dawley male rats, single sc 30 nmol/kg
Procedure: Sprague Dawley male rats were given a single subcutaneous (sc) bolus of each peptide to be tested, as specified below. 30 nmol/kg doses of compound were administered. Blood samples were drawn from the tail vein prior to dosing and at 24, 48, 72, 96 and 168 hours after dosing. Blood samples were taken from two rats at each time point, and only 2 blood samples were drawn from each rat, i.e. […] were used for each compound. The rats were euthanized immediately after the last blood sampling by concussion and cervical dislocation.
The dosing vehicle used for each test peptide was a mannitol-containing histidine buffer (pH 7.0). Plasma samples were analyzed after precipitation with ethanol by liquid chromatography mass spectrometry (LC-MS/MS). Mean plasma concentrations were used for calculation of the pharmacokinetic parameters using the non-compartmental approach in Phoenix WinNonlin 6.3.
Plasma terminal elimination half-life (t1/2) was determined as ln(2)/λz, where λz is the magnitude of the slope of the log linear regression of the log concentration versus time profile during the terminal phase. Apparent clearance (CL/F) was determined as dose/AUCinf (sc), where AUCinf is the area under the plasma concentration vs. time curve extrapolated to infinity (AUCinf=AUClast+Clast/λz, where Clast is the last observed plasma concentration).

[5] = target: T2, human amylin receptor 3 (hAMYR3), hCTR2 co-expressed with hRAMP3 (Homo sapiens, UniProt O60896+P30988); assay: hAMYR3 cAMP assay (AlphaScreen) in COS7 cells; format: cell-based; settings: cAMP induction, COS7 cells expressing hAMYR3; Table 1; read-out: hAMYR3 EC50
T2 construct: expressed in transfected cells
T2 sequence (P30988 25-474): T1 sequence (P30988 25-474)
T2 sequence (O60896 24-148 partner): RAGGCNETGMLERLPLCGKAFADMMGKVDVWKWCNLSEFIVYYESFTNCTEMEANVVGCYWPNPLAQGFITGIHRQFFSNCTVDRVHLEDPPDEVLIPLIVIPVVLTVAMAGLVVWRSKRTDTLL
Outline: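 Stable COS7 clone co-expressing hCTR2 and hRAMP3 was exposed to increasing peptide concentrations in Tyrode buffer (pH 7.4) with 100 µM IBMX and 0.1% casein for 15 min at 37 °C. Lysate cAMP was measured by AlphaScreen; EC50 came from 4-parameter logistic fitting.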

Row | Structure (SMILES) | Normalized purity after 7 days, 40° C., pH 4 [1] | Normalized purity after 7 days, 40° C., pH 6 [1] | Normalized purity after 7 days, 40° C., pH 7.5 [1] | Normalized purity after 7 days, 40° C., pH 9 [1] | EC50 [2] [pM] | Fibrillation pH 4.0 (Ac) [3] | Fibrillation pH 7.0 (His) [3] | Fibrillation pH 7.0 (Phos.) [3] | CI/F (apparent clearance values) [4] | EC50 [5] [pM]
1 | CC[C@H](C)[C@@H](C(=O)N[C@@H](CC(C)C)C(=O)N[C@@H](CO)C(=O)N[C@@H](CO)C(=O)N[C@H](C(=O)N[C@@H](CCC(=O)O)C(=O)N[C@H](C(=O)NCC(=O)N[C@@H](CO)C(=O)N[C@@H](CO)C(=O)N[C@H](C(=O)N1C[C@H](O)C[C@H]1C(N)=O)[C@@H](C)O)C(C)C)[C@@H](C)O)N(C)C(=O)[C@H](C)NC(=O)CN(C)C(=O)[C@H](Cc1ccccc1)NC(=O)[C@H](CO)NC(=O)[C@H](CO)NC(=O)[C@H](CCCNC(=N)N)NC(=O)[C@@H](NC(=O)[C@H](CC(C)C)NC(=O)[C@H](Cc1ccccc1)NC(=O)[C@H](Cc1c[nH]cn1)NC(=O)[C@H](C)NC(=O)[C@H](CC(C)C)NC(=O)[C@H](CCCNC(=N)N)NC(=O)[C@H](CCC(=O)O)NC(=O)[C@@H](NC(=O)[C@H](C)NC(=O)[C@@H]1CSSC[C@H](NC(=O)[C@H](CCCNC(=N)N)NC(=O)CC[C@H](NC(=O)CCCCCCCCCCCCCCCCCCC(=O)O)C(=O)O)C(=O)NCC(=O)N[C@@H]([C@@H](C)O)C(=O)N[C@@H](C)C(=O)N[C@@H]([C@@H](C)O)C(=O)N1)[C@@H](C)O)[C@@H](C)O [Compound 9, [19CD]-isoGlu-R-C( )-GTAT-C( )-ATERLAHFLTRSSF-Gly(Me)-A-Ile(Me)-LSSTEVGSST-Hyp-NH2] ({C20 diacid-γGlu}-RCGTATCATERLAHFLTRSSF[Sar]A[NMeI]LSSTEVGSST[Hyp]-NH2; disulfide 2-7) | A (A = >90%) | B (B = 70-90%) | B (B = 70-90%) | B (B = 70-90%) | 99 | FND | FD | FD | 0.0096 | 
2 | CC[C@H](C)[C@@H](C(=O)N[C@@H](CC(C)C)C(=O)N[C@@H](CO)C(=O)N[C@@H](CO)C(=O)N[C@H](C(=O)N[C@@H](CCC(=O)O)C(=O)N[C@H](C(=O)NCC(=O)N[C@@H](CO)C(=O)N[C@@H](CCCN)C(=O)N[C@H](C(=O)N1C[C@H](O)C[C@H]1C(N)=O)[C@@H](C)O)C(C)C)[C@@H](C)O)N(C)C(=O)[C@H](C)NC(=O)CN(C)C(=O)[C@H](Cc1ccccc1)NC(=O)[C@H](CO)NC(=O)[C@H](CO)NC(=O)[C@H](CCCNC(=N)N)NC(=O)[C@@H](NC(=O)[C@H](CC(C)C)NC(=O)[C@H](Cc1ccccc1)NC(=O)[C@H](Cc1c[nH]cn1)NC(=O)[C@H](C)NC(=O)[C@H](CC(C)C)NC(=O)[C@H](CCCNC(=N)N)NC(=O)[C@H](CCC(=O)O)NC(=O)[C@@H](NC(=O)[C@H](C)NC(=O)[C@@H]1CSSC[C@H](NC(=O)[C@H](CCCNC(=N)N)NC(=O)CC[C@H](NC(=O)CCCCCCCCCCCCCCCCCCC(=O)O)C(=O)O)C(=O)NCC(=O)N[C@@H]([C@@H](C)O)C(=O)N[C@@H](C)C(=O)N[C@@H]([C@@H](C)O)C(=O)N1)[C@@H](C)O)[C@@H](C)O [Compound 11, [19CD]-isoGlu-R-C( )-GTAT-C( )-ATERLAHFLTRSSF-Gly(Me)-A-Ile(Me)-LSSTEVGS-Orn-T-Hyp-NH2] ({C20 diacid-γGlu}-RCGTATCATERLAHFLTRSSF[Sar]A[NMeI]LSSTEVGS[Orn]T[Hyp]-NH2; disulfide 2-7) | A (A = >90%) | B (B = 70-90%) | A (A = >90%) | B (B = 70-90%) |  | FND | FD | FD | 0.0118 | 200
3 | CC[C@H](C)[C@@H](C(=O)N[C@@H](CC(C)C)C(=O)N[C@@H](CO)C(=O)N[C@@H](CO)C(=O)N[C@H](C(=O)N[C@@H](CCC(=O)O)C(=O)N[C@H](C(=O)NCC(=O)N[C@@H](CO)C(=O)NCC(=O)N[C@H](C(=O)N1C[C@H](O)C[C@H]1C(N)=O)[C@@H](C)O)C(C)C)[C@@H](C)O)N(C)C(=O)[C@H](C)NC(=O)CN(C)C(=O)[C@H](Cc1ccccc1)NC(=O)[C@H](CO)NC(=O)[C@H](CO)NC(=O)[C@H](CCCNC(=N)N)NC(=O)[C@@H](NC(=O)[C@H](CC(C)C)NC(=O)[C@H](Cc1ccccc1)NC(=O)[C@H](Cc1c[nH]cn1)NC(=O)[C@H](C)NC(=O)[C@H](CC(C)C)NC(=O)[C@H](CCCNC(=N)N)NC(=O)[C@H](CCC(=O)O)NC(=O)[C@@H](NC(=O)[C@H](C)NC(=O)[C@@H]1CSSC[C@H](NC(=O)[C@H](CCCNC(=N)N)NC(=O)CC[C@H](NC(=O)CCCCCCCCCCCCCCCCCCC(=O)O)C(=O)O)C(=O)NCC(=O)N[C@@H]([C@@H](C)O)C(=O)N[C@@H](C)C(=O)N[C@@H]([C@@H](C)O)C(=O)N1)[C@@H](C)O)[C@@H](C)O [Compound 13, [19CD]-isoGlu-R-C( )-GTAT-C( )-ATERLAHFLTRSSF-Gly(Me)-A-Ile(Me)-LSSTEVGSGT-Hyp-NH2] ({C20 diacid-γGlu}-RCGTATCATERLAHFLTRSSF[Sar]A[NMeI]LSSTEVGSGT[Hyp]-NH2; disulfide 2-7) | A (A = >90%) | A (A = >90%) | A (A = >90%) | A (A = >90%) |  | FND | FD | FD | 0.0106 | 380
